Measurements published in paper PMC12587545, “Noncytotoxic polymyxin derivatives enhance antibiotic action against multidrug-resistant Gram-negative bacteria” (Antimicrobial Agents and Chemotherapy, 2025).
Where “and” joins values, the source holds several entries; their conditions need not be identical. Equal entries are not always repeated. Positions of bridges follow the written chain, without caps; N, C: chain ends. Non-standard residues stand in square brackets, D forms with d. Residues, ends and D or L forms follow the SMILES beside them. *: point of attachment. Octanoyl = CCCCCCCC(=O)*; Dab = NCC[C@H](N)C(=O)O; Dap = NC[C@H](N)C(=O)O

How the values were obtained:
[1] = system: E. coli; test: Checkerboard assay (antibiotic potentiation); type: cell-based, Escherichia coli; conditions: compound 1 alone
[2] = system: P. aeruginosa; test: Checkerboard assay (antibiotic potentiation); type: cell-based, Pseudomonas aeruginosa; conditions: for MICcompound 1: compound 1 alone
[3] = system: P. aeruginosa 259-96916; test: Time-kill kinetics assay; conditions: monotherapy at 8 µg/mL, LB, 37°C, up to 24 h
[4] = system: E. cloacae; test: Checkerboard assay (antibiotic potentiation); type: cell-based, Enterobacter cloacae; conditions: E. cloacae 121887 (colistin-resistant); compound 1 alone
[5] = system: K. pneumoniae; test: Checkerboard assay (antibiotic potentiation); type: cell-based, Klebsiella pneumoniae; conditions: compound 1 alone
[6] = system: A. baumannii; test: Checkerboard assay (antibiotic potentiation); type: cell-based, Acinetobacter baumannii; conditions: compound 1 alone
[7] = system: E. faecalis ATCC 29212; test: Checkerboard assay (rifampicin potentiation); type: cell-based; conditions: compound 1 alone
Method: (§1) The interaction between the compounds and the antibiotics was evaluated using the fractional inhibitory concentration (FIC) index. FIC indices of ≤0.5 is synergistic, 0.5 < × ≤ 4 is additive, whereas >4 is antagonistic ([34]). […] .
(§2) The bacterial isolates were acquired from ATCC or the Canadian Ward Surveillance (CANWARD) study ([56]). CANWARD isolates were collected from infected patients admitted to participating medical centers across Canada.
(§3) The antibiotic and compounds were serially diluted 2-fold in CAMHB along the x- and y-axis, respectively, on a 96-well plate that was subsequently incubated with equal volumes of bacterial inoculum overnight at 37°C. Wells containing only media were used as negative controls, and wells containing only bacteria were used as positive controls. Synergy was measured by the FIC index, which is the summation of the individual FICs of the antibiotic and the compound. The FIC is calculated by dividing the MIC of one agent in the presence of another by the MIC of the agent alone. Turbidity was confirmed with a Molecular Devices (United States) EMax Plus microplate reader at a wavelength of 590 nm. The FBS studies were conducted by following a previously published protocol ([29], [50]). The FBS was inactivated by heating at 56°C for 30 min with constant swirling.

[8] = system: E. faecium ATCC 27270; test: Checkerboard assay (rifampicin potentiation); type: cell-based; conditions: compound 1 alone
Method: as §1, §2, §3

[9] = system: Methicillin-resistant S. aureus ATCC 22592; test: Checkerboard assay (rifampicin potentiation); type: cell-based; conditions: MRSA ATCC 22592; compound 1 alone
Method: as §1, §2, §3

[10] = system: A. baumannii AB027; test: Time-kill kinetics assay; conditions: monotherapy at 8 µg/mL, LB, 37°C, up to 24 h
Method: Bactericidal and bacteriostatic activity correspond to a ≥ 3 log10 and a < 3 log10 decrease in bacterial load after 24 h relative to the starting inoculum, respectively ([39]).
The time- and concentration-dependent killing of the antibiotic/compound combinations was assessed using the time-kill kinetics assay by following a previously described protocol ([27][–][29]). Bacterial culture grown overnight was diluted in phosphate-buffered saline (PBS) to 0.5 McFarland turbidity and was further diluted 1:50 in LB. Bacterial cultures treated with varying concentrations of antibiotic alone, compound alone, or the combination of antibiotic and compound were incubated in a shaking incubator at 250 rpm and at 37°C. At designated time points, 100 µL aliquots were taken from the culture tubes, serially diluted in PBS, and plated on LB agar plates. The bacterial colonies were then counted after incubation of the plates for 18 h at 37°C.

MICcompound 1 ([1]; E. coli 94393 (colistin-resistant)): >128 µg/mL | MICcompound 1 ([1]; E. coli 94474 (colistin-resistant)): >128 µg/mL | MICcompound 1 ([2]; P. aeruginosa 259-96916): >128 µg/mL | MICcompound 1 ([2]; P. aeruginosa 262-101856): >128 µg/mL | MICcompound 1 ([2]; P. aeruginosa 264-105354): >128 µg/mL | MICcompound 1 ([2]; P. aeruginosa 101243 (colistin-resistant)): >128 µg/mL | MICcompound 1 ([2]; P. aeruginosa 114228 (colistin-resistant)): >128 µg/mL | MICcompound 1 ([2]; P. aeruginosa PAO1, 0% FBS): >128 µg/mL | MICcompound 1 ([2]; P. aeruginosa PAO1, 10% FBS (heat-inactivated)): >128 µg/mL | MICcompound 1 ([2]; P. aeruginosa PAO1, 25% FBS): >128 µg/mL | MICcompound 1 ([2]; P. aeruginosa PAO1, 50% FBS): >128 µg/mL | MICcompound 1 ([2]; P. aeruginosa PAO1, [Mg2+] 25 mM): >128 µg/mL | MICcompound 1 ([2]; P. aeruginosa PAO1, [Mg2+] 0.4–0.5 mM (CAMHB)): >128 µg/mL | MICcompound ([2]; P. aeruginosa PAO1, compound alone): >128 µg/mL | MICcompound 1 [4]: >128 µg/mL | MICcompound 1 ([5]; K. pneumoniae 113250 (colistin-resistant)): >128 µg/mL | MICcompound 1 ([5]; K. pneumoniae 116381): >128 µg/mL | MICcompound 1 ([6]; A. baumannii 92247 (colistin-resistant)): >128 µg/mL | MICcompound 1 ([6]; A. baumannii 110193): 32 µg/mL and 16 µg/mL | MICcompound 1 ([6]; A. baumannii AB027): >128 µg/mL | MICcompound 1 ([6]; A. baumannii ATCC 17978, 0% FBS): 16 µg/mL | MICcompound 1 ([6]; A. baumannii ATCC 17978, 10% FBS (heat-inactivated)): >128 µg/mL | MICcompound 1 ([6]; A. baumannii ATCC 17978, 25% FBS): >128 µg/mL | MICcompound 1 ([6]; A. baumannii ATCC 17978, 50% FBS): >128 µg/mL | MICcompound 1 ([6]; A. baumannii ATCC 17978, [Mg2+] 25 mM): >128 µg/mL | MICcompound 1 ([6]; A. baumannii ATCC 17978, [Mg2+] 0.4–0.5 mM (CAMHB)): 16 µg/mL | MICcompound 1 [7]: >128 µg/mL | MICcompound 1 [8]: >128 µg/mL | MICcompound 1 [9]: >128 µg/mL
SMILES: CCCCCCCC(=O)N[C@@H](CN)C(=O)N[C@H](C(=O)N[C@@H](CN)C(=O)N[C@H]1CCNC(=O)[C@H]([C@@H](C)O)NC(=O)[C@H](CN)NC(=O)[C@H](CN)NC(=O)[C@H](CC(C)C)NC(=O)[C@@H](Cc2ccccc2)NC(=O)[C@H](CN)NC1=O)[C@@H](C)O [Compound 1] (Octanoyl-[Dap]T[Dap][Dab][Dap][dF]L[Dap][Dap]T; lactam 4-C)
time-kill outcome [3]: decrease in growth up to 4 h, with regrowth occurring at 8 h | time-kill outcome [10]: growth curves similar to that of untreated bacteria
